Experimental data taken from patent US8314112B2 (Novartis AG, priority 2008, dated 2012).

Molecular target: T1, human ALK5 (kinase domain, ALK5 T204D) (Homo sapiens, UniProt P36897, T204D)
T1 construct: The kinase domain of human ALK5 (amino acids 200-503); made in house; host or cells: insect cells (baculovirus)
T1 sequence (P36897 200-503 T204D): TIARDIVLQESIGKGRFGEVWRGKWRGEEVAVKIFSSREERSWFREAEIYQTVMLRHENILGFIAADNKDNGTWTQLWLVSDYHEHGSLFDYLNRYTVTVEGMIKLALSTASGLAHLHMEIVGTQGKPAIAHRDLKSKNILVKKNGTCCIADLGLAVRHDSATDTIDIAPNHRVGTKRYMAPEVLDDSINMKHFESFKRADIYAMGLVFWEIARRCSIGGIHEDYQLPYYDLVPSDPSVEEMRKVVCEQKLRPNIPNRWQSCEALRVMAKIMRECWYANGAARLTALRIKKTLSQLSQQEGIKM
Experiment: ALK5 kinase assay ([33P] phosphate incorporation into casein)
Assay type: biochemical
Conditions: casein substrate, 1 μM unlabelled ATP
Method: The kinase activity of ALK5 is assessed by measuring radiolabelled phosphate [33P] incorporation in to the generic substrate, casein. The kinase domain of human ALK5 (amino acids 200-503) is fused to an N-terminal histidine tag. The kinase activity of ALK5 is rendered constitutive via point mutation at amino acid 204 (threonine to aspartate modification, ALK5 T204D) and the kinase construct is engineered to be expressed from a baculovirus expression construct in insect cells. The purified, recombinantly-expressed histidine-tagged ALK5 T204D protein is dissolved at 5.4 mg/ml in 50 mM Tris-HCl pH 8.0, 150 mM NaCl, 5 mM DTT. ALK5 T204D is dissolved to 2.5 μg/ml in assay buffer (Assay buffer: 20 mM Tris-HCl pH 7.4, 10 mM MgCl2, 2 mM MnCl2) on the day of use.
Test compounds and reference compounds are dissolved in assay buffer without DTT containing 5% (v/v) DMSO. Stock solutions of test and reference compounds are diluted in assay buffer with DTT (1.25 mM) containing 4.5% (v/v) DMSO. 10 μl of test or reference compound are added to the appropriate wells of 96 well U-bottomed plate. Total enzyme activity is determined by measuring ALK5 T204D activity in the absence of ALK5 kinase inhibitor reference compounds. Non-specific binding (NSB) is determined by measuring the activity of ALK5 T204D in the presence of ALK5 kinase inhibitor reference compounds. 10 μl of dephosphorylated casein stock solution (dephosphorylated casein is dissolved in ddH2O at 20 mg/ml) is added per well (200 μg/well final assay concentration). 20 μl of ALK5 T204D (2.5 μg/ml solution) is added per well (50 ng/well final assay concentration). The plates are left to incubate at room temperature for 10 minutes.
10 μl of ATP mix is added to the well to initiate the reaction (0.66 nM [^33P]ATP/1 μM unlabelled ATP/well final assay concentration). The ATP mix is prepared as follows, unlabelled ATP (3 mM) is dissolved in ddH2O and pH adjusted to 7.4. The stock concentration of [^33P]ATP is 10 μCi/μl. The appropriate volume of [^33P]ATP is added to unlabelled ATP solution such that the final assay concentration per well is 0.1 μCi. Following addition of the ATP mix, the plates are incubated at room temperature for 50 minutes. The kinase reaction is terminated by the addition of 50 μL Stop Buffer (20 mM Tris-HCl pH 7.4, 10 mM EDTA).
75 μl/well from the reaction plate is transferred to a Multiscreen-IP plate (MultiScreen-IP plates are prepared by added 50 μL of 70% (v/v) ethanol per well and incubated for 5 minutes at room temperature. The ethanol is removed by aspiration via a MultiScreen HTS Vaccum Manifold unit (Millipore, Cat no: MSVMHT500). The plates are washed twice by adding 200 μl/well ddH2O). The MultiScreen-IP plate is incubated at room temperature for 30 minutes to allowing binding of casein to the plate. The MultiScreen-IP plates are washed three times by adding 200 μl/well 100 mM phosphoric acid solution and the gasket is carefully removed from the back of the MultiScreen-IP plate and the plate dried in the oven for 30 minutes. The MultiScreen-IP plate is backsealed, 50 μL of Microscint™20 is added, then the plates are topsealed and radiolabelled casein detected and quantified on a TopCount™ plate-reader using the ^33P scintillation protocol.

IC50 [µM]	SMILES
0.424	Brc1cncc(-c2nc(-c3ccccn3)nc3[nH]ccc23)c1 [Example 44, 4-(5-Bromo-pyridin-3-yl)-2-pyridin-2-yl-7H-pyrrolo[2,3-d]pyrimidine]
0.019	CN1CCN(Cc2cccc(-c3cncc(-c4nc(-c5ccccn5)nc5[nH]ccc45)c3)c2)CC1 [Example 45, 4-{5-[3-(4-Methyl-piperazin-1-ylmethyl)-phenyl]-pyridin-3-yl}-2-pyridin-2-yl-7H-pyrrolo[2,3-d]pyrimidine]
0.264	Cc1cccc(-c2cc(-c3cccnc3)c3cc[nH]c3n2)n1 [Example 46, 6-(6-methyl-pyridin-2-yl)-4-pyridin-3-yl-1H-pyrrolo[2,3-b]pyridine]
0.028	COc1cncc(-c2cc(-c3cccc(C)n3)nc3[nH]ccc23)c1 [Example 47, 4-(5-Methoxy-pyridin-3-yl)-6-(6-methyl-pyridin-2-yl)-1H-pyrrolo[2,3-b]pyridine]
1.34	Cc1cccc(-c2nc(-c3cncc(N4CCCCC4)c3)c3cc[nH]c3n2)n1 [Example 48, 5′-[2-(6-Methyl-pyridin-2-yl)-7H-pyrrolo[2,3-d]pyrimidin-4-yl]-3,4,5,6-tetrahydro-2H-[1,3′]bipyridinyl]
1.08	Cc1cccc(-c2nc(-c3cncc(N4CCC(O)CC4)c3)c3cc[nH]c3n2)n1 [Example 49, 5′-[2-(6-Methyl-pyridin-2-yl)-7H-pyrrolo[2,3-d]pyrimidin-4-yl]-3,4,5,6-tetrahydro-2H-[1,3′]bipyridinyl-4-ol]
0.149	Cc1cccc(-c2nc(-c3cncc(NC(=O)CCN)c3)c3cc[nH]c3n2)n1 [Example 50, 3-amino-N-{5-[2-(6-methyl-pyridin-2-yl)-7H-pyrrolo[2,3-d]pyrimidin-4-yl]-pyridin-3-yl}-propionamide]
0.66	Cc1cccc(-c2nc(-c3cncc(N4CCOCC4)c3)c3cc[nH]c3n2)n1 [Example 51, 2-(6-Methyl-pyridin-2-yl)-4-(5-morpholin-4-yl-pyridin-3-yl)-7H-pyrrolo[2,3-d]pyrimidine]
0.435	CC(=O)NCCCC(=O)Nc1cncc(-c2nc(-c3cccc(C)n3)nc3[nH]ccc23)c1 [Example 52, 4-Acetylamino-N-{5-[2-(6-methyl-pyridin-2-yl)-7H-pyrrolo[2,3-d]pyrimidin-4-yl]-pyridin-3-yl}-butyramide]
0.57	CC(=O)NCCC(=O)Nc1cncc(-c2nc(-c3cccc(C)n3)nc3[nH]ccc23)c1 [Example 53, 3-Acetylamino-N-{5-[2-(6-methyl-pyridin-2-yl)-7H-pyrrolo[2,3-d]pyrimidin-4-yl]-pyridin-3-yl}-propionamide]
0.119	Cc1cccc(-c2nc(-c3cncc(NC(=O)CCO)c3)c3cc[nH]c3n2)n1 [Example 54, 3-Hydroxy-N-{5-[2-(6-methyl-pyridin-2-yl)-7H-pyrrolo[2,3-d]pyrimidin-4-yl]-pyridin-3-yl}-propionamide]
0.813	Cc1cccc(-c2nc(-c3cnccc3C)c3cc[nH]c3n2)n1 [Example 55, 4-(4-Methyl-pyridin-3-yl)-2-(6-methyl-pyridin-2-yl)-7H-pyrrolo[2,3-d]pyrimidine]
< 0.07	Cc1cccc(-c2cc(-c3cncc4ccccc34)c3cc[nH]c3n2)n1 [Example 56, 4-[6-(6-Methyl-pyridin-2-yl)-1H-pyrrolo[2,3-b]pyridin-4-yl]-isoquinoline]
0.271	Cc1cccc(-c2cc(-c3cncc(N4CCN(C)CC4)c3)c3cc[nH]c3n2)n1 [Example 57, 4-[5-(4-Methyl-piperazin-1-yl)-pyridin-3-yl]-6-(6-methyl-pyridin-2-yl)-1H-pyrrolo[2,3-b]pyridine]
0.056	CCOc1cncc(-c2cc(-c3cccc(C)n3)nc3[nH]ccc23)c1 [Example 58, 4-(5-Ethoxy-pyridin-3-yl)-6-(6-methyl-pyridin-2-yl)-1H-pyrrolo[2,3-b]pyridine]
0.03	Cc1cccc(-c2nc(-c3cncc(-c4cccc(CN)c4)c3)c3cc[nH]c3n2)n1 [Example 59, 3-{5-[2-(6-Methyl-pyridin-2-yl)-7H-pyrrolo[2,3-d]pyrimidin-4-yl]-pyridin-3-yl}-benzylamine]
0.096	COc1cccc(-c2cncc(-c3cc(-c4cccc(C)n4)nc4[nH]ccc34)c2)c1 [Example 60, 4-[5-(3-Methoxy-phenyl)-pyridin-3-yl]-6-(6-methyl-pyridin-2-yl)-1H-pyrrolo[2,3-b]pyridine]
0.029	Cc1cccc(-c2nc(-c3cncc(-c4ccc(CN)cc4)c3)c3cc[nH]c3n2)n1 [Example 61, 4-{5-[2-(6-Methyl-pyridin-2-yl)-7H-pyrrolo[2,3-d]pyrimidin-4-yl]-pyridin-3-yl}-benzylamine]
0.04	Cc1cccc(-c2cc(-c3cncc(NC(=O)CCN(C)C)c3)c3cc[nH]c3n2)n1 [Example 62, 3-Dimethylamino-N-{5-[6-(6-methyl-pyridin-2-yl)-1H-pyrrolo[2,3-b]pyridin-4-yl]-pyridin-3-yl}-propionamide]
0.012	Cc1cccc(-c2cc(-c3cncc(-c4cccc(CN5CCN(C)CC5)c4)c3)c3cc[nH]c3n2)n1 [Example 63, 4-{5-[3-(4-Methyl-piperazin-1-ylmethyl)-phenyl]-pyridin-3-yl}-6-(6-methyl-pyridin-2-yl)-1H-pyrrolo[2,3-b]pyridine]
0.25	Cc1cccc(-c2cc(-c3cncc(OC(C)C)c3)c3cc[nH]c3n2)n1 [Example 64, 4-(5-Isopropoxy-pyridin-3-yl)-6-(6-methyl-pyridin-2-yl)-1H-pyrrolo[2,3-b]pyridine]
0.005	Cc1cccc(-c2cc(-c3cncc(-c4ccc(CN(C)C)cc4)c3)c3cc[nH]c3n2)n1 [Example 65, Dimethyl-(4-{5-[6-(6-methyl-pyridin-2-yl)-1H-pyrrolo[2,3-b]pyridin-4-yl]-pyridin-3-yl}-benzyl)-amine]
< 0.069	Cc1cccc(-c2cc(-c3cncc(-c4cccc(CN(C)C)c4)c3)c3cc[nH]c3n2)n1 [Example 66, Dimethyl-(3-{5-[6-(6-methyl-pyridin-2-yl)-1H-pyrrolo[2,3-b]pyridin-4-yl]-pyridin-3-yl}-benzyl)-amine]
0.024	Cc1cccc(-c2nc(-c3cncc(-c4cccc(CN5CCOCC5)c4)c3)c3cc[nH]c3n2)n1 [Example 67, 2-(6-Methyl-pyridin-2-yl)-4-[5-(3-morpholin-4-ylmethyl-phenyl)-pyridin-3-yl]-7H-pyrrolo[2,3-d]pyrimidine]
< 0.032	CNCc1cccc(-c2cncc(-c3cc(-c4cccc(C)n4)nc4[nH]ccc34)c2)c1 [Example 68, Methyl-(3-{5-[6-(6-methyl-pyridin-2-yl)-1H-pyrrolo[2,3-b]pyridin-4-yl]-pyridin-3-yl}-benzyl)-amine]
< 0.064	Cc1cccc(-c2nc(-c3cncc(-c4ccc(CN5CCOCC5)cc4)c3)c3cc[nH]c3n2)n1 [Example 69, 2-(6-Methyl-pyridin-2-yl)-4-[5-(4-morpholin-4-ylmethyl-phenyl)-pyridin-3-yl]-7H-pyrrolo[2,3-d]pyrimidine]
0.013	Cc1cccc(-c2nc(-c3cncc(-c4ccc(CO)cc4)c3)c3cc[nH]c3n2)n1 [Example 70]
0.198	Cc1cccc(-c2nc(-c3cncc(C4=CCCCC4)c3)c3cc[nH]c3n2)n1 [Example 72, 4-(5-Cyclohex-1-enyl-pyridin-3-yl)-2-(6-methyl-pyridin-2-yl)-7H-pyrrolo[2,3-d]pyrimidine]
